# Laboratory results from patent publication US6544985B2, “Dihydro-benzo [b][1,4]diazepin-2-one derivatives” (Hoffman-La Roche Inc., priority 2001, dated 2003).
row,Structure (SMILES),melting point [°C]
1,"CN(C)c1cc2c(cc1C(F)(F)F)NC(=O)CC(c1cccc(-n3nncc3CNCC(F)(F)F)c1)=N2 [Example 76, 7-Dimethylamino-4-(3-{5-[(2,2,2-trifluoro-ethylamino)methyl]-[1,2,3]triazol-1-yl}-phenyl)8-trifluoromethyl-1,3-dihydro-benzo[b][1,4]diazepin-2-one]",168 to 170
2,"CN(CC1CC1)c1cc2c(cc1C(F)(F)F)NC(=O)CC(c1cccc(-n3nncc3CO)c1)=N2 [Example 77, 7-(Cyclopropylmethyl-methyl-amino)-4-[3-(5-hydroxymethyl-[1,2,3]triazol-1-yl)-phenyl]-8-trifluoromethyl-1,3-dihydro-benzo[b][1,4]diazepin-2-one]",212
3,"CN(C)c1cc2c(cc1C(F)(F)F)NC(=O)CC(c1cccc(-n3cc(CNC4CC4)cn3)c1)=N2 [Example 79, 4-[3-(4-Cyclopropylaminomethyl-pyrazol-1-yl)-phenyl]-7-dimethylamino-8-trifluoromethyl-1,3-dihydro-benzo[b][1,4]diazepin-2-one]",135
4,"CN(CC1CC1)c1cc2c(cc1C(F)(F)F)NC(=O)CC(c1cccc(-n3nncc3CNC3CC3)c1)=N2 [Example 80, 4-[3-(5-Cyclopropylaminomethyl-[1,2,3]triazol-1-yl)-phenyl]-7-(cyclopropylmethyl-methyl-amino)-8-trifluoromethyl-1,3-dihydro-benzo[b][1,4]diazepin-2-one]",35 to 46
5,"CN(C)c1cc2c(cc1C(F)(F)F)NC(=O)CC(c1cccc(-c3ccnn3CCO)c1)=N2 [Example 81, 7-Dimethylamino-4-{3-[2-(2-hydroxy-ethyl)-2H-pyrazol-3-yl]-phenyl}-8-trifluoromethyl-1,3-dihydro-benzo[b][1,4]diazepin-2-one]",138
6,"CN(c1cc2c(cc1C(F)(F)F)NC(=O)CC(c1ccnc(C#N)c1)=N2)C1CC1 [Example 83, 4-[8-(Cyclopropyl-methyl-amino)-4-oxo-7-trifluoromethyl-4,5-dihydro-3H-benzo[b][1,4]diazepin-2-yl]-pyridine-2-carbonitrile]",200 to 205
7,"CN(C)c1cc2c(cc1C(F)(F)F)NC(=O)CC(c1cccc(-n3nncc3CCO)c1)=N2 [Example 85, 7-Dimethylamino-4-{3-[5-(2-hydroxy-ethyl)-[1,2,3]triazol-1-yl]-phenyl}-8-trifluoromethyl-1,3-dihydro-benzo[b][1,4]diazepin-2-one]",172 to 175
8,"CN(C)c1cc2c(cc1C(F)(F)F)NC(=O)CC(c1cccc(-n3nccc3CO)c1)=N2 [Example 86, 7-Dimethylamino-4-[3-(5-hydroxymethyl-pyrazol-1-yl)-phenyl]-8-trifluoromethyl-1,3-dihydro-benzo[b][1,4]diazepin-2-one]",228 to 229
9,"CN(C)c1cc2c(cc1C(F)(F)F)NC(=O)CC(c1cccc(-n3ccnn3)c1)=N2 [Example 87, 7-Dimethylamino-4-(3-[1,2,3]triazol-1-yl-phenyl)-8-trifluoromethyl-1,3-dihydro-benzo[b][1,4]diazepin-2-one]",210 to 212
10,"Cc1cc2c(cc1N(C)C)N=C(c1cccc(C#N)c1)CC(=O)N2 [Example 89, 3-(8-Dimethylamino-7-methyl-4-oxo-4,5-dihydro-3H-benzo[b][1,4]diazepin-2-yl)-benzonitrile]",257
11,"Cc1cc2c(cc1N(C)C)N=C(c1cccc(-n3nncc3CO)c1)CC(=O)N2 [Example 90, 7-Dimethylamino-4-[3-(5-hydroxymethyl-[1,2,3]triazol-1-yl)-phenyl]-8-methyl-1,3-dihydro-benzo[b][1,4]diazepin-2-one]",190
12,"CN(C)c1cc2c(cc1C#N)NC(=O)CC(c1cccc(C#N)c1)=N2 [Example 91, 2-(3-Cyano-phenyl)-8-dimethylamino-4-oxo-4,5-dihydro-3H-benzo[b][1,4]diazepine-7-carbonitrile]",251
13,"CCCN(C)c1cc2c(cc1C)NC(=O)CC(c1cccc(-n3nncc3CO)c1)=N2 [Example 93, 4-[3-(5-Hydroxymethyl-[1,2,3]triazol-1-yl)-phenyl]-8-methyl-7-(methyl-propyl-amino)-1,3-dihydro-benzo[b][1,4]diazepin-2-one]",186
14,"CCN(C)c1cc2c(cc1C)NC(=O)CC(c1cccc(-n3nncc3CO)c1)=N2 [Example 94, 7-(Ethyl-methyl-amino)-4-[3-(5-hydroxymethyl-[1,2,3]triazol-1-yl)-phenyl]-8-methyl-1,3-dihydro-benzo[b][1,4]diazepin-2-one]",207
15,"CN(C)c1cc2c(cc1C#N)NC(=O)CC(c1cccc(-n3nncc3CO)c1)=N2 [Example 95, 8-Dimethylamino-2-[3-(5-hydroxymethyl-[1,2,3]triazol-1-yl)-phenyl]-4-oxo-4,5-dihydro-3H-benzo[b][1,4]diazepine-7-carbonitrile]",234
16,"CC(C)N(C)c1cc2c(cc1Cl)NC(=O)CC(c1cccc(-n3nncc3CO)c1)=N2 [Example 96, 8-Chloro-4-[3-(5-hydroxymethyl-[1,2,3]triazol-1-yl)-phenyl]-7-(isopropyl-methyl-amino)-1,3-dihydro-benzo[b][1,4]diazepin-2-one]",207

row,Structure (SMILES),melting point [°C]
1,"CCCN(C)c1cc2c(cc1C)NC(=O)CC(c1cccc(-c3cc(C)no3)c1)=N2 [Example 97, 8-Methyl-4-[3-(3-methyl-isoxazol-5-yl)-phenyl]-7-(methyl-propyl-amino)-1,3-dihydro-benzo[b][1,4]diazepin-2-one]",194
2,"Cc1cc(-c2cccc(C3=Nc4cc(N(C)C)c(C#N)cc4NC(=O)C3)c2)on1 [Example 98, 8-Dimethylamino-2-[3-(3-methyl-isoxazol-5-yl)-phenyl]-4-oxo-4,5-dihydro-3H-benzo[b][1,4]diazepine-7-carbonitrile]",248
3,"Cc1cc(-c2cccc(C3=Nc4cc(N(C)C)c(C)cc4NC(=O)C3)c2)on1 [Example 100, 7-Dimethylamino-8-methyl-4-[3-(3-methyl-isoxazol-5-yl)-phenyl]-1,3-dihydro-benzo[b][1,4]diazepin-2-one]",204
4,"Cc1cc(-c2cccc(C3=Nc4cc(N(C)CC(C)C)c(Cl)cc4NC(=O)C3)c2)on1 [Example 102, 8-Chloro-7-(isobutyl-methyl-amino)-4-[3-(3-methyl-isoxazol-5-yl)-phenyl]-1,3-dihydro-benzo[b][1,4]diazepin-2-one]",194
5,"N#Cc1cc2c(cc1N1CCCC1)N=C(c1cccc(-n3nncc3CO)c1)CC(=O)N2 [Example 103, 2-[3-(5-Hydroxymethyl-[1,2,3]triazol-1-yl)-phenyl]-4-oxo-8-pyrrolidin-1-yl-4,5-dihydro-3H-benzo[b][1,4]diazepine-7-carbonitrile]",241
6,"Cc1cc(-c2cccc(C3=Nc4cc(N5CCCC5)c(C#N)cc4NC(=O)C3)c2)on1 [Example 104, 2-[3-(3-Methyl-isoxazol-5-yl)-phenyl]-4-oxo-8-pyrrolidin-1-yl-4,5-dihydro-3H-benzo[b][1,4]diazepine-7-carbonitrile]",267
7,"CCCN(C)c1cc2c(cc1C#N)NC(=O)CC(c1cccc(-n3nncc3CO)c1)=N2 [Example 105, 2-[3-(5-Hydroxymethyl-[1,2,3]triazol-1-yl)-phenyl]-8-(methyl-propyl-amino)-4-oxo-4,5-dihydro-3H-benzo[b][1,4]diazepine-7-carbonitrile]",221
8,"CCCN(C)c1cc2c(cc1C#N)NC(=O)CC(c1cccc(-c3cc(C)no3)c1)=N2 [Example 106, 2-[3-(3-Methyl-isoxazol-5-yl)-phenyl]-8-(methyl-propyl-amino)-4-oxo-4,5-dihydro-3H-benzo[b][1,4]diazepine-7-carbonitrile]",133
9,"Cc1cc(-c2cccc(C3=Nc4cc(N(C)C(C)C)c(C#N)cc4NC(=O)C3)c2)on1 [Example 108, 8-(Isopropyl-methyl-amino)-2-[3-(3-methyl-isoxazol-5-yl)-phenyl]-4-oxo-4,5-dihydro-3H-benzo[b][1,4]diazepine-7-carbonitrile]",197
10,"CC(C)N(C)c1cc2c(cc1C#N)NC(=O)CC(c1cccc(-n3nncc3CO)c1)=N2 [Example 109, 2-[3-(5-Hydroxymethyl-[1,2,3]triazol-1-yl)-phenyl]-8-(isopropyl-methyl-amino)-4-oxo-4,5-dihydro-3H-benzo[b][1,4]diazepine-7-carbonitrile]",206
11,"Cc1cc(-c2cccc(C3=Nc4cc(N(C)CC(C)C)c(C#N)cc4NC(=O)C3)c2)on1 [Example 110, 8-(Isobutyl-methyl-amino)-2-[3-(3-methyl-isoxazol-5-yl)-phenyl]-4-oxo-4,5-dihydro-3H-benzo[b][1,4]diazepine-7-carbonitrile]",170
12,"Cc1cc(-c2cccc(C3=Nc4cc(N5CCCCC5)c(C#N)cc4NC(=O)C3)c2)on1 [Example 112, 2-[3-(3-Methyl-isoxazol-5-yl)-phenyl]-4-oxo-8-piperidin-1-yl-4,5-dihydro-3H-benzo[b][1,4]diazepine-7-carbonitrile]",246
13,"CCCN(C)c1cc2c(cc1C(F)(F)F)NC(=O)CC(c1cccc(-n3nncc3CO)c1)=N2 [Example 115, 4-[3-(5-Hydroxymethyl-[1,2,3]triazol-1-yl)-phenyl]-7-(methyl-propyl-amino)-8-trifluoromethyl-1,3-dihydro-benzo[b][1,4]diazepin-2-one]",230
14,"CCCN(C)c1cc2c(cc1C(F)(F)F)NC(=O)CC(c1cccc(-c3cc(C)no3)c1)=N2 [Example 116, 4-[3-(3-Methyl-isoxazol-5-yl)-phenyl]-7-(methyl-propyl-amino)-8-trifluoromethyl-1,3-dihydro-benzo[b][1,4]diazepin-2-one]",193
15,"Cc1cc(-c2cccc(C3=Nc4cc(N(C)CC(C)C)c(C(F)(F)F)cc4NC(=O)C3)c2)on1 [Example 118, 7-(Isobutyl-methyl-amino)-4-[3-(3-methyl-isoxazol-5-yl)-phenyl]-8-trifluoromethyl-1,3-dihydro-benzo[b][1,4]diazepin-2-one]",195
